These are literature values, as cited in PubChem BioAssay AID1259409 (Chemical Carcinogenesis Research Information System (CCRIS), 2018).

The test system of this data set is rodent chemically induced tumor inhibition, incidence and multiplicity. Nature of the data set: CCRIS tumor inhibitor studies.

Consider `Cc1cc(C(C)(C)C)c(O)c(C(C)(C)C)c1`, for which the “tumour outcome (control, treated, inhibition, significance)” value (Carcinogen: 1,2-DIMETHYLHYDRAZINE DIHYDROCHLORIDE, 306-37-6, Dose [Inhibitor]: 6600 PPM IN DIET FOR 23 WK (STUDY DURATION: 23 WK), Route [Inhibitor]: ORAL, Species: RAT, Strain/Sex: SPRAGUE-DAWLEY MALE, Target Tissue: Type of Lesion: CECUM: TUMOR, Dose [Carcinogen]: 30 MG/KG IN SALINE 1/WK FOR THE FIRST 9 WK OF STUDY (10 DOSES), SIMULTANEOUSLY WITH INHIBITOR, Promoter: NONE USED) is reported as 1/10 (10%), 4/9 (44%), -340%, not calculated; the “tumour outcome (control, treated, inhibition, significance)” value (Carcinogen: 1,2-DIMETHYLHYDRAZINE DIHYDROCHLORIDE, 306-37-6, Dose [Inhibitor]: 6600 PPM IN DIET FOR 23 WK (STUDY DURATION: 23 WK), Route [Inhibitor]: ORAL, Species: RAT, Strain/Sex: SPRAGUE-DAWLEY MALE, Target Tissue: Type of Lesion: COLON: TUMOR, Dose [Carcinogen]: 30 MG/KG IN SALINE 1/WK FOR THE FIRST 9 WK OF STUDY (10 DOSES), SIMULTANEOUSLY WITH INHIBITOR, Promoter: NONE USED) is given as 10/10 (100%), 9/9 (100%), 0%, not calculated; the “tumour outcome (control, treated, inhibition, significance)” value (Carcinogen: 1,2-DIMETHYLHYDRAZINE DIHYDROCHLORIDE, 306-37-6, Dose [Inhibitor]: 6600 PPM IN DIET FOR 23 WK (STUDY DURATION: 23 WK), Route [Inhibitor]: ORAL, Species: RAT, Strain/Sex: SPRAGUE-DAWLEY MALE, Target Tissue: Type of Lesion: DUODENUM: TUMOR, Dose [Carcinogen]: 30 MG/KG IN SALINE 1/WK FOR THE FIRST 9 WK OF STUDY (10 DOSES), SIMULTANEOUSLY WITH INHIBITOR, Promoter: NONE USED) is reported as 8/10 (80%), 5/9 (56%), 30%, not calculated; the “tumour outcome (control, treated, inhibition, significance)” value (Carcinogen: 1,2-DIMETHYLHYDRAZINE, 540-73-8, Dose [Inhibitor]: 0, 0.5% IN DIET BEGINNING 1 WK POST LAST CARCINOGEN DOSE AND CONTINUING FOR 36 WK (STUDY DURATION: 40 WK), Route [Inhibitor]: ORAL, Species: RAT, Strain/Sex: F344/MALE, Target Tissue: Type of Lesion: COLON: ADENOMA, Dose [Carcinogen]: 20 MG/KG 1/WK FOR 4 WK, Promoter: NONE USED) is given as 5/18 (28%), 4/19 (21%), 25%, not calculated; the “tumour outcome (control, treated, inhibition, significance)” value (Carcinogen: 1,2-DIMETHYLHYDRAZINE, 540-73-8, Dose [Inhibitor]: 0, 0.5% IN DIET BEGINNING 1 WK POST LAST CARCINOGEN DOSE AND CONTINUING FOR 36 WK (STUDY DURATION: 40 WK), Route [Inhibitor]: ORAL, Species: RAT, Strain/Sex: F344/MALE, Target Tissue: Type of Lesion: COLON: CARCINOMA, Dose [Carcinogen]: 20 MG/KG 1/WK FOR 4 WK, Promoter: NONE USED) is given as 7/18 (39%), 9/19 (48%), -23%, not calculated; the “tumour outcome (control, treated, inhibition, significance)” value (Carcinogen: 1,2-DIMETHYLHYDRAZINE, 540-73-8, Dose [Inhibitor]: 0, 250 MG/KG BW IN CORN OIL 1/D FOR 2 WK PRIOR TO FIRST CARCINOGEN DOSE THEN 3/WK FOR DURATION OF STUDY (STUDY DURATION:, Route [Inhibitor]: GAVAGE, Species: RAT, Strain/Sex: BD6/MALE, Target Tissue: Type of Lesion: INTESTINE: TUMOR, Dose [Carcinogen]: 20 MG/KG BW 1/WK FOR 20 WK, Promoter: NONE USED) is recorded as 100%, 100%, 0%, not significant. Moreover, the “tumour outcome (control, treated, inhibition, significance)” value runs as follows: (Carcinogen: 1,2-DIMETHYLHYDRAZINE, 540-73-8, Dose [Inhibitor]: 0.5% IN DIET STARTING 2 WK PRIOR TO CARCINOGEN TREATMENT AND CONTINUING FOR DURATION OF STUDY (STUDY DURATION: 28 WK), Route [Inhibitor]: ORAL, Species: RAT, Strain/Sex: SPRAGUE-DAWLEY/MALE, Target Tissue: Type of Lesion: COLON: ADENOCARCINOMA, Dose [Carcinogen]: 20 MG/KG BW IN BACTERIOSTATIC SALINE 1/WK FOR 20 WK, Promoter: NONE USED) 9/14 (64%), 3/7 (43%), 33%, not calculated; (Carcinogen: 1,2-DIMETHYLHYDRAZINE, 540-73-8, Dose [Inhibitor]: 0.75% IN DIET FOR LIFE BEGINNING AT 8 WK OF AGE (STUDY DURATION: 10 MO POST FIRST CARCINOGEN TREATMENT), Route [Inhibitor]: ORAL, Species: MOUSE, Strain/Sex: BALB/FEMALE, Target Tissue: Type of Lesion: LARGE INTESTINE: TUMOR, Dose [Carcinogen]: 20 MG/KG BW IN SALINE FOR 10 WK BEGINNING AT 11 WK OF AGE, Promoter: NONE USED) 9/18 (50%), 15/25 (60%), -20%, not significant; (Carcinogen: 1,2-DIMETHYLHYDRAZINE, 540-73-8, Dose [Inhibitor]: 0.75% IN DIET FOR LIFE BEGINNING AT 8 WK OF AGE (STUDY DURATION: 10 MO POST FIRST CARCINOGEN TREATMENT), Route [Inhibitor]: ORAL, Species: MOUSE, Strain/Sex: BALB/MALE, Target Tissue: Type of Lesion: LARGE INTESTINE: TUMOR, Dose [Carcinogen]: 20 MG/KG BODY WEIGHT IN SALINE FOR 10 WK BEGINNING AT 11 WK OF AGE, Promoter: NONE USED) 15/20 (75%), 12/35 (34%), 55%, p=0.0036; (Carcinogen: 2-ACETYLAMINOFLUORENE, 53-96-3, Dose [Inhibitor]: 0, 100 PPM IN DIET CONCURRENTLY WITH CARCINOGEN FOR STUDY DURATION (STUDY DURATION: 76 WK), Route [Inhibitor]: ORAL, Species: RAT, Strain/Sex: F344/MALE, Target Tissue: Type of Lesion: LIVER: HEPATOCELLULAR TUMOR, Dose [Carcinogen]: 50 PPM IN DIET FOR 76 WK) 20/20 (100%), 18/18 (100%), 0%, not calculated; (Carcinogen: 2-ACETYLAMINOFLUORENE, 53-96-3, Dose [Inhibitor]: 0, 100 PPM IN SEMISYNTHETIC DIET CONCURRENTLY WITH CARCINOGEN FOR STUDY DURATION (STUDY DURATION: 76 WK), Route [Inhibitor]: ORAL, Species: RAT, Strain/Sex: F344/MALE, Target Tissue: Type of Lesion: BLADDER: CARCINOMA, Dose [Carcinogen]: 50 PPM IN DIET FOR 76 WK) 1/17 (6%), 0/16 (0%), 100%, not calculated; (Carcinogen: 2-ACETYLAMINOFLUORENE, 53-96-3, Dose [Inhibitor]: 0, 100 PPM IN SEMISYNTHETIC DIET CONCURRENTLY WITH CARCINOGEN FOR STUDY DURATION (STUDY DURATION: 76 WK), Route [Inhibitor]: ORAL, Species: RAT, Strain/Sex: F344/MALE, Target Tissue: Type of Lesion: LIVER: HEPATOCELLULAR TUMORS, Dose [Carcinogen]: 50 PPM IN DIET FOR 76 WK) 17/17 (100%), 16/16 (100%), 0%, not significant. Also, the “tumour outcome (control, treated, inhibition, significance)” value by setting is: (Carcinogen: 2-ACETYLAMINOFLUORENE, 53-96-3, Dose [Inhibitor]: 0, 300 PPM IN DIET CONCURRENTLY WITH CARCINOGEN FOR STUDY DURATION (STUDY DURATION: 76 WK), Route [Inhibitor]: ORAL, Species: RAT, Strain/Sex: F344/MALE, Target Tissue: Type of Lesion: LIVER: HEPATOCELLULAR TUMOR, Dose [Carcinogen]: 50 PPM IN DIET FOR 76 WK) 20/20 (100%), 17/17 (100%), 0%, not calculated; (Carcinogen: 2-ACETYLAMINOFLUORENE, 53-96-3, Dose [Inhibitor]: 0, 1000 PPM IN DIET CONCURRENTLY WITH CARCINOGEN FOR STUDY DURATION (STUDY DURATION: 76 WK), Route [Inhibitor]: ORAL, Species: RAT, Strain/Sex: F344/MALE, Target Tissue: Type of Lesion: LIVER: HEPATOCELLULAR TUMOR, Dose [Carcinogen]: 50 PPM IN DIET FOR 76 WK) 20/20 (100%), 19/19 (100%), 0%, not calculated. Further, the outcome (Carcinogen: 2-ACETYLAMINOFLUORENE, 53-96-3, Dose [Inhibitor]: 0, 300 PPM IN DIET CONCURRENTLY WITH CARCINOGEN FOR STUDY DURATION (STUDY DURATION: 76 WK), Route [Inhibitor]: ORAL, Species: RAT, Strain/Sex: F344/MALE, Target Tissue: Type of Lesion: LIVER: ADENOMA, Dose [Carcinogen]: 50 PPM IN DIET FOR 76 WK) was 19.2, 13.4, 30%, p<0.05.
